SMILES strings stand for the structures.

Assay [1] has as its system serum cholesterol. Nature of the assay: Serum cholesterol lowering effect in rat having high cholesterol [3-1]. Type of assay: in vivo, SD-type (Sprague-Dawley) male rat. Particulars: oral, once a day for 5 days, dissolved in saline, Table 12. How it is done: 3) Cholesterol Lowering Effect
[3-1] Using a rat having high cholesterol, compounds of the invention were tested for their serum cholesterol lowering effects by the following method. A 6-week-old SD-type (Sprague-Dawley) male rat was fed with food containing 1% of cholesterol, 0.5% of cholic acid and 5% of olive oil for 2 days and then orally administered the food and a compound of the invention as dissolved in saline once a day for 5 days starting on day 3. Four hours after the final administration, a blood sample was taken. The total cholesterol in the serum of the test group was measured and compared with that of the control group.

The test system of assay [2] is ACAT enzyme of human CaCo2 cells. The assay is described as follows: ACAT enzyme activity of human CaCo2 cells (microsome fractions). The format is biochemical. Particulars: Table 11, read-out: IC50, inhibitory effect on ACAT enzyme activity, human CaCo2. The procedure:
(§1) ACAT enzyme activities of the microsomes were determined by the method of J. G. Heider (J. Lipid Res., 24, 1127-1134, 1983). A test sample dissolved in 1% dimethylsulfoxide was added to a microsome fraction (100 μg), a phosphoric acid buffer (0.154M) having pH 7.4, 1-^14 C-oleoyl CoA (36 μM), dithiosleitol (2 mM) and bovine blood serum albumin (36 μg/ml). The reaction mixture adjusted to a final capacity of 0.5 ml was incubated at 37° C. for 60 minutes. A mixture (6 ml) of chloroform and methanol (2:1) was added and the reaction was stopped. Cholesterol oleate was extracted with chloroform and separated by thin-layer chromatography. ACAT enzyme activities of the microsome fractions were determined by radiation measurement.
(§2) [2-2] ACAT enzyme activities of human HepG2 and CaCo2 cells
(§3) Human HepG2 and CaCo2 cells purchased from ATCC (AMERICAN TYPE CULTURE COLLECTION) were used in this test.
(§4) Using RPMI 1640 medium for HepG2 and DMEM medium for CaCo2, HepG2 and CaCo2 cells were cultured with 40 ml of each medium containing 10% bovine blood serum, 50 I.U. of penicillin and 50 μg/ml of streptomycin in a 5% CO2 incubator at 37° C. The cells were then monolayer-culturedwith 80 ml of each medium containing […] of cholesterol and 5 μg/ml of 25-0H cholesterol in a 175 cm flask for 5 hours. The homogenizes of these cells were subjected to centrifugation at 105,000 g to collect microsome fractions. ACAT enzyme activities of the microsome fractions were determined by the above-mentioned method.

Assay [3] concerns serum cholesterol. The assay is described as follows: Serum cholesterol lowering effect in rat having high cholesterol [3-2]. The conditions noted are these: oral, once a day for the last 5 days, Tween 80 and saline suspension, Table 13. Type of assay: in vivo, SD-type (Sprague-Dawley) male rat. The procedure: [3-2] Using a rat having high cholesterol, compounds of the invention were tested for their serum cholesterol lowering effects by the following method. A 6-week-old SD-type (Sprague-Dawley) male rat was fed with food containing 1% of cholesterol, 0.5% of cholic acid and 5% of olive oil for 7 days. For the last 5 days, a test sample suspended in some drops of Tween 80 and saline was orally administered once a day. Four hours after the final administration, a blood sample was taken from celiac aorta of the rat under etherization. The total cholesterol in the serum of the test group was measured by the oxygen method and compared with that of the control group.

The target of assay [4] is ACAT enzyme of rabbit liver microsomes. The assay is described as follows: Inhibitory effect on ACAT enzyme (No.2), rabbit liver microsomes. Type of assay: biochemical. Particulars: pH 7.4, 37° C., 60 minutes, Table 10. How it is done:
(§5) 2) Inhibitory effect on ACAT (Acyl-CoA: cholesterol acyltransferase) enzyme (No.2)
(§6) [2-1] ACAT enzyme activities of rabbit liver and small intestine mucosa microsomes
(§7) A white male rabbit was fed with a […] cholesterol-containing food for four weeks and bleeding-slaughtered to extract its liver and small intestine. Microsomes of the liver and small intestine mucosa were prepared by the method of C. Marco et al. (Biochim. Biophys. Acta, 617, 458-471, 1980).
as §1
In general terms: Liver microsomes are a subcellular fraction often used to study metabolism.

Assay [5] deals with ACAT (Acyl-CoA: cholesterol acyltransferase) enzyme of rabbit liver microsome. The assay is described as follows: Inhibitory effect on ACAT enzyme (No.1), rabbit liver microsome. Type of assay: biochemical. Particulars: Table 9. The procedure:
1) Inhibitory effect on ACAT (Acyl-CoA: cholesterol acyltransferase) enzyme (No.1)
Compounds of the invention were tested for their inhibitory effects on ACAT enzyme of rabbit liver microsome by the method of J. G. Heider (J. of Lipid Res., vol. 24, 1127-1134, 1983). More specifically, the test was done by measuring the amount of labelled cholesterol oleate ester produced from oleic acid CoA (coenzyme A) labelled by radiation.

Assay [6] deals with T1, ACAT enzyme of rabbit small intestine mucosa microsomes (Oryctolagus cuniculus, UniProt G1SFD9).
T1 construct: Microsomes of the liver and small intestine mucosa were prepared; from tissue; host or cells: small intestine mucosa microsomes of a cholesterol-fed white male rabbit
T1 sequence (G1SFD9 1-524): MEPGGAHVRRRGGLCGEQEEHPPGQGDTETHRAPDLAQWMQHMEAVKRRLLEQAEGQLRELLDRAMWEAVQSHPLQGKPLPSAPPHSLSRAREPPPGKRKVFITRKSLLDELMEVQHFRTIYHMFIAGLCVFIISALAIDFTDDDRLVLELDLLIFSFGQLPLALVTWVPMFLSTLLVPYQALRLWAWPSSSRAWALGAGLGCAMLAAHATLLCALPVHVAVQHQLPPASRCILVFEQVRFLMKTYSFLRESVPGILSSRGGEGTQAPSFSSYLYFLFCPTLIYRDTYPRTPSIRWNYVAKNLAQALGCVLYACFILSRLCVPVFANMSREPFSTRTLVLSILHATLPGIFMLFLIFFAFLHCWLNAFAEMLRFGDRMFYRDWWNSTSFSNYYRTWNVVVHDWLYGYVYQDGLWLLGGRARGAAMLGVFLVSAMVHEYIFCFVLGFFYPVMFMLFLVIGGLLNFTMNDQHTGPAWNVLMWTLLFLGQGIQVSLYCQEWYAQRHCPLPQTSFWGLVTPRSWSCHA
The assay is described as follows: Inhibitory effect on ACAT enzyme (No.2), rabbit small intestine mucosa microsomes. Particulars: pH 7.4, 37° C., 60 minutes, Table 10. The format is biochemical. The procedure:
as §5, §6, §7, §1

The test system of assay [7] is ACAT enzyme of human HepG2 cells. Nature of the assay: ACAT enzyme activity of human HepG2 cells (microsome fractions). The format is biochemical. Particulars: Table 11, read-out: IC50, inhibitory effect on ACAT enzyme activity, human HepG2. How it is done: as §1, §2, §3, §4

One may read the IC50 as the midpoint of a concentration-inhibition curve. Regarding `CC1CCC(N(C[C@H]2CC[C@H](CN(C(=O)Nc3ccc(N(C)C)cc3)C3CCC(C)CC3)CC2)C(=O)Nc2ccc(N(C)C)cc2)CC1` (relative stereo) [Example 28, Trans-1,4-bis[[3-(4-dimethylaminophenyl)-1-(4-methylcyclohexyl)ureido]methyl]cyclohexane], the “Cholesterol lowering effect, % (serum total cholesterol vs control group)” value (from here on “Cholesterol lowering effect, %”) with serum cholesterol [1] (3 mg/kg) is recorded as 106%; with serum cholesterol [1] (10 mg/kg), 100%; in the assay with serum cholesterol [3] (1 mg/kg), 70.2%; in the assay on serum cholesterol [3] (3 mg/kg), 106.5%. The IC50 in assay [2] was 0.52 nM; in assay [4] it was 42 nM; in assay [5] it was 25 nM; in assay [6] it was 30 nM; in assay [7] it was 1.2 nM.
As to `O=C(Nc1ccc(N2CCCCC2)cc1)N(C[C@H]1CC[C@H](CN(C(=O)Nc2ccc(N3CCCCC3)cc2)C2CCCCC2)CC1)C1CCCCC1` [Example 13, Trans-1,4-bis[[1-cyclohexyl-3-(4-piperidinophenyl)ureido]methyl]cyclohexane], the half-maximal inhibitory concentration (IC50) in assay [2] stood at 1.1 nM; in assay [4], 35 nM; in assay [6], 130 nM; in assay [7] it was 0.86 nM. Besides, the “Cholesterol lowering effect, %” value in the assay with serum cholesterol [3] (1 mg/kg) is 76.8%; in the assay on serum cholesterol [3] (3 mg/kg), 96.2%.
For the molecule `O=C(Nc1ccc(N2CCCC2)cc1)N(C[C@H]1CC[C@H](CN(C(=O)Nc2ccc(N3CCCC3)cc2)C2CCCCC2)CC1)C1CCCCC1` [Example 14-1, Trans-1,4-bis[[1-cyclohexyl-3-(4-pyrrolidinophenyl)ureido]methyl]cyclohexan], the IC50 in assay [2] came to 0.8 nM; in assay [4] it was 180 nM; in assay [6], 140 nM; in assay [7] it was 0.4 nM. The results for the “Cholesterol lowering effect, %” value in the assay on serum cholesterol [3] (1 mg/kg) and with serum cholesterol [3] (3 mg/kg) were 80.9% and 96.2%, respectively.
With `CN(C)c1ccc(NC(=O)N(C[C@H]2CC[C@H](CN(C(=O)Nc3ccc(N(C)C)cc3)C3CCCCCC3)CC2)C2CCCCCC2)cc1` [Example 22, Trans-1,4-bis[[1-cycloheptyl-3-(4-dimethyaminophenyl)ureido]methyl]cyclohexane], the half-inhibitory concentration (IC50) in assay [2] was determined as 0.22 nM; in assay [4], 83 nM; in assay [6], 18 nM; in assay [7] it was 0.32 nM. Also, the “Cholesterol lowering effect, %” value with serum cholesterol [3] (1 mg/kg) was determined as 77.6%; with serum cholesterol [3] (3 mg/kg), 97.2%.

The record behind these values is patent US5733931A, “Cyclohexanediurea derivative and process for its production” (Nissin Food Products Co., Ltd., priority 1993, dated 1998).
